Results taken from ChEMBL document CHEMBL3817774, “Pterostilbene-mediated Nrf2 activation: Mechanistic insights on Keap1:Nrf2 interface” (Bioorg Med Chem, 2016).

Key:
Format in all cases: cell-based
[1] = molecular target: T1, Nuclear factor erythroid 2-related factor 2 (Mus musculus) (UniProt Q60795); assay: Activation of Nrf2 in mouse MIN6 cells assessed as decrease in cytoplasmic Nrf2 fraction by Western blot analysis
T1 sequence (whole entry): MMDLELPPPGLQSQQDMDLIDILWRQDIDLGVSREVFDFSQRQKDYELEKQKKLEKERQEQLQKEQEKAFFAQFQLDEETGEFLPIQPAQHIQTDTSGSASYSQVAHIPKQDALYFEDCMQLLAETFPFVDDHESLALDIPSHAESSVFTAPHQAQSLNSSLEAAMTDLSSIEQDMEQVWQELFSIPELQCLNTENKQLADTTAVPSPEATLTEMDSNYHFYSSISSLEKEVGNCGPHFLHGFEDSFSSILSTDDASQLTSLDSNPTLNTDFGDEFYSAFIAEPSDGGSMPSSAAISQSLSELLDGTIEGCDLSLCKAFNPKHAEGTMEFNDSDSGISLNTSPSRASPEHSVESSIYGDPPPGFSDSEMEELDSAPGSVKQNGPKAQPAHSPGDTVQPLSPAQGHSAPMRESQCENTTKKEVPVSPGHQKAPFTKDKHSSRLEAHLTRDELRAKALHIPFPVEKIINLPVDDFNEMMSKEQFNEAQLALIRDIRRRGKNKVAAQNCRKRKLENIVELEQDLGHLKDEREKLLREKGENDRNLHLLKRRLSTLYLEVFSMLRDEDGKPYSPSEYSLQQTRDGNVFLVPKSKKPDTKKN

[2] = molecular target: T2, Keap1/Nrf2 (Homo sapiens) (UniProt Q16236+Q14145); assay: Inhibition of Nrf2-Keap1 (unknown origin) interaction co-expressed in HEK293T cells using D-luciferin as substrate assessed as decrease in luciferase signal intensity at 0.5 to 10 uM by bioluminescence-based IVIS imaging analysis; details: HEK-293T, TDE = time-dependent effect
T2 sequence (Q14145 whole entry, looked up): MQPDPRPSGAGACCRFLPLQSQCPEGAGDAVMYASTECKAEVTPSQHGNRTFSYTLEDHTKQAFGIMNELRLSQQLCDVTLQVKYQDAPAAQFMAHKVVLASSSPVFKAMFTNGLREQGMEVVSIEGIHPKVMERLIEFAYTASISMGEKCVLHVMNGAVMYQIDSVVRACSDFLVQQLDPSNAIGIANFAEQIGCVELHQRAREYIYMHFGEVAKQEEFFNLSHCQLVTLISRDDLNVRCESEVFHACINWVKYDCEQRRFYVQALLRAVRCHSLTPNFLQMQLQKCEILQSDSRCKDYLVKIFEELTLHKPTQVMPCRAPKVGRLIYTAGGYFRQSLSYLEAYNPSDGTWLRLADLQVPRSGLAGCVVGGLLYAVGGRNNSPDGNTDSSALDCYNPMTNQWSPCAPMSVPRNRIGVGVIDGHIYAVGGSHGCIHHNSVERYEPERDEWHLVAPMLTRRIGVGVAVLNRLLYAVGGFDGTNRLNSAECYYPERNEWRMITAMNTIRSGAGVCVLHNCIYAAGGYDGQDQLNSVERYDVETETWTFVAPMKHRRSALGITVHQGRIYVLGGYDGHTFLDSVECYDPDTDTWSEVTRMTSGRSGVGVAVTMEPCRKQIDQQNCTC
T2 sequence (Q16236 whole entry, looked up): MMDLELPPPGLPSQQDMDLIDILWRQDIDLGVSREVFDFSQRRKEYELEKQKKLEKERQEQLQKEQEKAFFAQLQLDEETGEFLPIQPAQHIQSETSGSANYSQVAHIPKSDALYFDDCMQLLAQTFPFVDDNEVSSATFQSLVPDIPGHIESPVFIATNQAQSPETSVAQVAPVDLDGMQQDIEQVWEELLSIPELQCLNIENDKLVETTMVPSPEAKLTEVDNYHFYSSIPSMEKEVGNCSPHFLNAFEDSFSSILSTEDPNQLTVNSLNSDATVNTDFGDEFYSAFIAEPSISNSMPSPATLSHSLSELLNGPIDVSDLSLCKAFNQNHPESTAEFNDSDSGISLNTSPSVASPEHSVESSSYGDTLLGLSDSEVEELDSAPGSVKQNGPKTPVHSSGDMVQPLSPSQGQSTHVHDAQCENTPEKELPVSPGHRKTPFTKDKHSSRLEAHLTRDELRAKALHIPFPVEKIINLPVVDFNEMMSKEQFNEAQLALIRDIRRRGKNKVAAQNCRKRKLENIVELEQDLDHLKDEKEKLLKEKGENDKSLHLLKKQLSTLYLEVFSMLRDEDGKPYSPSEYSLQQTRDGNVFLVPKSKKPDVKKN

[3] = molecular target: T1, Nuclear factor erythroid 2-related factor 2 (Mus musculus); assay: Activation of Nrf2 in mouse MIN6 cells assessed as upregulation of GST1-ARE-luciferase incubated for 8 hrs by luminometric assay relative to control
[4] = molecular target: T1, Nuclear factor erythroid 2-related factor 2 (Mus musculus); assay: Activation of Nrf2 in mouse MIN6 cells assessed as upregulation of human NQO1-ARE-luciferase incubated for 8 hrs by luminometric assay relative to control
[5] = molecular target: T2, Keap1/Nrf2 (Homo sapiens); assay: Inhibition of Nrf2-Keap1 (unknown origin) interaction co-expressed in HEK293T cells using D-luciferin as substrate assessed as decrease in luciferase signal intensity incubated for 24 hrs by bioluminescence-based IVIS imaging analysis; details: HEK-293T
[6] = molecular target: T1, Nuclear factor erythroid 2-related factor 2 (Mus musculus); assay: Activation of Nrf2 in mouse MIN6 cells assessed as increase in nuclear Nrf2 translocation by Western blot analysis

COc1cc(/C=C/c2ccc(O)cc2)cc(OC)c1
Activity [1]: Dose-dependent effect | inhibition [2]: tde | Activity [3]: Dose-dependent effect | fold change (FC) [3]: 2 | Activity [4]: Dose-dependent effect | fold change (FC) [4]: 2 | inhibition [5]: Dose-dependent effect | Activity [6]: Dose-dependent effect
